Measured values taken from PubChem BioAssay AID1963986 (Molecular Pharmacology Branch, DTP, NCI, 2024).

System: 171881-019-R-J1-PDC tumor spheroid viability
Experiment: Anticancer human tumor 171881-019-R-J1-PDC patient-derived invasive breast carcinoma cell line growth inhibition [PI3K]
Conditions: spheroids with HUVEC and MSC; for IC50: curve of first compound; for viability, T/C: stronger effect = lower value
How it was run: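 Tumor cells grown as multi-cell spheroids with HUVEC endothelial cells and MSC fibroblast-like stroma were treated with targeted agents combined with inavolisib, alpelisib, duvelisib or copanlisib. Doses fell in half-log steps from near clinical Cmax, else from 10 microM. Viability was measured.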

[1] = second compound 0.0316 µM, first compound 0.000316 µM
[2] = second compound 0.0316 µM, first compound 0.001 µM
[3] = second compound 0.0316 µM, first compound 0.00316 µM
[4] = second compound 0.0316 µM, first compound 0.01 µM
[5] = second compound 0.0316 µM, first compound 0.0316 µM
[6] = second compound 0.0316 µM, first compound 0.1 µM
[7] = second compound 0.1 µM, first compound 0.000316 µM
[8] = second compound 0.1 µM, first compound 0.001 µM
[9] = second compound 0.1 µM, first compound 0.00316 µM
[10] = second compound 0.1 µM, first compound 0.01 µM
[11] = second compound 0.1 µM, first compound 0.0316 µM
[12] = second compound 0.1 µM, first compound 0.1 µM
[13] = second compound 0.316 µM, first compound 0.000316 µM
[14] = second compound 0.316 µM, first compound 0.001 µM
[15] = second compound 0.316 µM, first compound 0.00316 µM
[16] = second compound 0.316 µM, first compound 0.01 µM
[17] = second compound 0.316 µM, first compound 0.0316 µM
[18] = second compound 0.316 µM, first compound 0.1 µM
[19] = second compound 1 µM, first compound 0.000316 µM
[20] = second compound 1 µM, first compound 0.001 µM
[21] = second compound 1 µM, first compound 0.00316 µM
[22] = second compound 1 µM, first compound 0.01 µM
[23] = second compound 1 µM, first compound 0.0316 µM
[24] = second compound 1 µM, first compound 0.1 µM
[25] = second compound 3.16 µM, first compound 0.000316 µM
[26] = second compound 3.16 µM, first compound 0.001 µM
[27] = second compound 3.16 µM, first compound 0.00316 µM
[28] = second compound 3.16 µM, first compound 0.01 µM
[29] = second compound 3.16 µM, first compound 0.0316 µM
[30] = second compound 3.16 µM, first compound 0.1 µM
[31] = second compound 10 µM, first compound 0.000316 µM
[32] = second compound 10 µM, first compound 0.001 µM
[33] = second compound 10 µM, first compound 0.00316 µM
[34] = second compound 10 µM, first compound 0.01 µM
[35] = second compound 10 µM, first compound 0.0316 µM
[36] = second compound 10 µM, first compound 0.1 µM
[37] = second compound 0.0316 µM, first compound 0.316 µM
[38] = second compound 0.0316 µM, first compound 1 µM
[39] = second compound 0.0316 µM, first compound 3.16 µM
[40] = second compound 0.0316 µM, first compound 10 µM
[41] = second compound 0.1 µM, first compound 0.316 µM
[42] = second compound 0.1 µM, first compound 1 µM
[43] = second compound 0.1 µM, first compound 3.16 µM
[44] = second compound 0.1 µM, first compound 10 µM
[45] = second compound 0.316 µM, first compound 0.316 µM
[46] = second compound 0.316 µM, first compound 1 µM
[47] = second compound 0.316 µM, first compound 3.16 µM
[48] = second compound 0.316 µM, first compound 10 µM
[49] = second compound 1 µM, first compound 0.316 µM
[50] = second compound 1 µM, first compound 1 µM
[51] = second compound 1 µM, first compound 3.16 µM
[52] = second compound 1 µM, first compound 10 µM
[53] = second compound 3.16 µM, first compound 0.316 µM
[54] = second compound 3.16 µM, first compound 1 µM
[55] = second compound 3.16 µM, first compound 3.16 µM
[56] = second compound 3.16 µM, first compound 10 µM
[57] = second compound 10 µM, first compound 0.316 µM
[58] = second compound 10 µM, first compound 1 µM
[59] = second compound 10 µM, first compound 3.16 µM
[60] = second compound 10 µM, first compound 10 µM
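Further: spheroids exposed to compound for 7 days before viability read.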
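Wherever viability, T/C is given: 100% = DMSO vehicle-treated spheroids.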

## CC(=O)c1c(C)c2cnc(Nc3ccc(N4CCNCC4)cn3)nc2n(C2CCCC2)c1=O + CC(Nc1ncnc2nc[nH]c12)c1cc2cccc(Cl)c2c(=O)n1-c1ccccc1
Second compound 0.0316 µM
  IC50: > 100 nM
Second compound 0.1 µM
  IC50: > 100 nM
Second compound 0.316 µM
  IC50: > 100 nM
Second compound 1 µM
  IC50: > 100 nM
Second compound 3.16 µM
  IC50: > 100 nM
Second compound 10 µM
  IC50: > 100 nM
[1]
  viability, T/C: 91.9%
[2]
  viability, T/C: 88%
[3]
  viability, T/C: 93%
[4]
  viability, T/C: 90.6%
[5]
  viability, T/C: 102%
[6]
  viability, T/C: 92.9%
[7]
  viability, T/C: 99.9%
[8]
  viability, T/C: 96.8%
[9]
  viability, T/C: 98.3%
[10]
  viability, T/C: 91.7%
[11]
  viability, T/C: 97.6%
[12]
  viability, T/C: 88.7%
[13]
  viability, T/C: 91%
[14]
  viability, T/C: 88.5%
[15]
  viability, T/C: 96%
[16]
  viability, T/C: 107%
[17]
  viability, T/C: 106%
[18]
  viability, T/C: 87.8%
[19]
  viability, T/C: 104%
[20]
  viability, T/C: 87.6%
[21]
  viability, T/C: 100%
[22]
  viability, T/C: 94.9%
[23]
  viability, T/C: 102%
[24]
  viability, T/C: 82.2%
[25]
  viability, T/C: 94.2%
[26]
  viability, T/C: 90.3%
[27]
  viability, T/C: 91.2%
[28]
  viability, T/C: 93.2%
[29]
  viability, T/C: 103%
[30]
  viability, T/C: 79.1%
[31]
  viability, T/C: 62.4%
[32]
  viability, T/C: 60.1%
[33]
  viability, T/C: 59.1%
[34]
  viability, T/C: 63.8%
[35]
  viability, T/C: 64.9%
[36]
  viability, T/C: 56.9%

## CC(C)n1nc(-c2ccc3oc(N)nc3c2)c2c(N)ncnc21 + CC(Nc1ncnc2nc[nH]c12)c1cc2cccc(Cl)c2c(=O)n1-c1ccccc1
Second compound 0.0316 µM
  IC50: 12.4 nM
Second compound 0.1 µM
  IC50: 9.88 nM
Second compound 0.316 µM
  IC50: 10.3 nM
Second compound 1 µM
  IC50: 8.02 nM
Second compound 3.16 µM
  IC50: 4.14 nM
Second compound 10 µM
  IC50: 1.21 nM
[1]
  viability, T/C: 89.7%
[2]
  viability, T/C: 75.7%
[3]
  viability, T/C: 86.5%
[4]
  viability, T/C: 53.3%
[5]
  viability, T/C: 22.7%
[6]
  viability, T/C: 3.39%
[7]
  viability, T/C: 89.8%
[8]
  viability, T/C: 90.5%
[9]
  viability, T/C: 71.8%
[10]
  viability, T/C: 51.1%
[11]
  viability, T/C: 21%
[12]
  viability, T/C: 4.54%
[13]
  viability, T/C: 96.2%
[14]
  viability, T/C: 94.3%
[15]
  viability, T/C: 78.2%
[16]
  viability, T/C: 50.7%
[17]
  viability, T/C: 20.4%
[18]
  viability, T/C: 3.31%
[19]
  viability, T/C: 93.1%
[20]
  viability, T/C: 89.3%
[21]
  viability, T/C: 67.4%
[22]
  viability, T/C: 47.3%
[23]
  viability, T/C: 18.5%
[24]
  viability, T/C: 3.26%
[25]
  viability, T/C: 84.5%
[26]
  viability, T/C: 71.8%
[27]
  viability, T/C: 53.8%
[28]
  viability, T/C: 37%
[29]
  viability, T/C: 13.3%
[30]
  viability, T/C: 3.36%
[31]
  viability, T/C: 55.8%
[32]
  viability, T/C: 52.1%
[33]
  viability, T/C: 40%
[34]
  viability, T/C: 22.2%
[35]
  viability, T/C: 7.46%
[36]
  viability, T/C: 3.13%

## CC1(C)CCC(CN2CCN(c3ccc(C(=O)NS(=O)(=O)c4ccc(NCC5CCOCC5)c([N+](=O)[O-])c4)c(Oc4cnc5[nH]ccc5c4)c3)CC2)=C(c2ccc(Cl)cc2)C1 + CC(Nc1ncnc2nc[nH]c12)c1cc2cccc(Cl)c2c(=O)n1-c1ccccc1
Second compound 0.0316 µM
  IC50: 4130 nM
Second compound 0.1 µM
  IC50: 3980 nM
Second compound 0.316 µM
  IC50: 3970 nM
Second compound 1 µM
  IC50: 4010 nM
Second compound 3.16 µM
  IC50: 2590 nM
Second compound 10 µM
  IC50: 1490 nM
[5]
  viability, T/C: 88.6%
[6]
  viability, T/C: 80.2%
[37]
  viability, T/C: 80.3%
[38]
  viability, T/C: 76%
[39]
  viability, T/C: 61.9%
[40]
  viability, T/C: 14.3%
[11]
  viability, T/C: 89.7%
[12]
  viability, T/C: 89.9%
[41]
  viability, T/C: 74.5%
[42]
  viability, T/C: 72.6%
[43]
  viability, T/C: 64.1%
[44]
  viability, T/C: 11.7%
[17]
  viability, T/C: 90.4%
[18]
  viability, T/C: 88.2%
[45]
  viability, T/C: 81.9%
[46]
  viability, T/C: 97.3%
[47]
  viability, T/C: 59.2%
[48]
  viability, T/C: 12.4%
[23]
  viability, T/C: 92.1%
[24]
  viability, T/C: 88.3%
[49]
  viability, T/C: 81.4%
[50]
  viability, T/C: 84.8%
[51]
  viability, T/C: 59.9%
[52]
  viability, T/C: 10.8%
[29]
  viability, T/C: 84.5%
[30]
  viability, T/C: 87.9%
[53]
  viability, T/C: 85%
[54]
  viability, T/C: 75.7%
[55]
  viability, T/C: 44.6%
[56]
  viability, T/C: 11.4%
[35]
  viability, T/C: 64.5%
[36]
  viability, T/C: 55.9%
[57]
  viability, T/C: 57%
[58]
  viability, T/C: 57%
[59]
  viability, T/C: 37.7%
[60]
  viability, T/C: 9.06%

## CCCS(=O)(=O)Nc1ccc(F)c(C(=O)c2c[nH]c3ncc(-c4ccc(Cl)cc4)cc23)c1F + CC(Nc1ncnc2nc[nH]c12)c1cc2cccc(Cl)c2c(=O)n1-c1ccccc1
Second compound 0.0316 µM
  IC50: 5730 nM
Second compound 0.1 µM
  IC50: 5450 nM
Second compound 0.316 µM
  IC50: 5380 nM
Second compound 1 µM
  IC50: 6000 nM
Second compound 3.16 µM
  IC50: 6060 nM
Second compound 10 µM
  IC50: 4950 nM
[5]
  viability, T/C: 90.8%
[6]
  viability, T/C: 87.2%
[37]
  viability, T/C: 97.2%
[38]
  viability, T/C: 84.1%
[39]
  viability, T/C: 92.3%
[40]
  viability, T/C: 12.2%
[11]
  viability, T/C: 98.7%
[12]
  viability, T/C: 81.3%
[41]
  viability, T/C: 95%
[42]
  viability, T/C: 91.4%
[43]
  viability, T/C: 83.3%
[44]
  viability, T/C: 12.8%
[17]
  viability, T/C: 87.4%
[18]
  viability, T/C: 89.1%
[45]
  viability, T/C: 103%
[46]
  viability, T/C: 101%
[47]
  viability, T/C: 83.2%
[48]
  viability, T/C: 11.3%
[23]
  viability, T/C: 95.1%
[24]
  viability, T/C: 107%
[49]
  viability, T/C: 106%
[50]
  viability, T/C: 105%
[51]
  viability, T/C: 97.7%
[52]
  viability, T/C: 11.9%
[29]
  viability, T/C: 90.9%
[30]
  viability, T/C: 97%
[53]
  viability, T/C: 104%
[54]
  viability, T/C: 121%
[55]
  viability, T/C: 103%
[56]
  viability, T/C: 9.5%
[35]
  viability, T/C: 67.8%
[36]
  viability, T/C: 70.7%
[57]
  viability, T/C: 77.2%
[58]
  viability, T/C: 90.8%
[59]
  viability, T/C: 82.2%
[60]
  viability, T/C: 6.77%
